The source of these data is patent US8273881B2, “Phenazine compounds and use thereof in autoimmune and inflammatory diseases” (JJ Pharma, Inc., priority 2007, dated 2012).

Holding throughout (type): in vivo, DBA/1 LacJ mice
In assay [1] the test system is Type II collagen-induced arthritis (CIA) in mice. The assay can be described thus: Collagen-induced arthritis (CIA) mouse model, clinical assessment (involved paws, arthritis score). Particulars: for arthritis score vs saline control treated mice (FIG. 2), overall statement: CIA mice, route not specified; for Day post the start of therapy from which a significant reduction (p<0.02) in arthritis score was achieved: each agent at its regimen, Formula III via i.p. The text has this: Type II collagen-induced arthritis (CIA) in mice is an accepted experimental model of arthritis with a number of pathological, immunological and genetic features in common with rheumatoid arthritis. This disease is induced by immunization of susceptible strains of mice with type II collagen, the major component of joint cartilage. A progressive, inflammatory arthritis develops in the majority of immunized animals, which is characterized clinically by erythema and edema, with affected paw width increases of typically 100%. A clinical scoring index has been developed to assess disease progression to joint distortion and spondylitis. […] Immunological laboratory findings include high antibody levels to type II collagen and hypergammaglobulinemia.
This study was designed to evaluate the anti-inflammatory and anti-arthritic activity of compound of Formula III using the CIA model by observing changes in immune parameters due to treatment. The animals were administered oral corticosteroid, Enbrel, an injectable TNF inhibitor, and compound of Formula III using both oral and parenteral delivery. Seventy-five DBA/1 LacJ mice 8-10 weeks of age were obtained from Jackson Labs and quarantined in our facility for 10 days prior to experimentation. All mice weighed >16 grams at the start of the experiment. Mice were pre-bled by retro-orbital puncture, and injected with 100 μg Bovine type II collagen in Freund's complete adjuvant (FCA) intradermally at the base of the tail. Mice were monitored by daily examination for the onset of disease. Mice that developed CIA between 20 days post immunization and 42 days post immunization were assigned to one of five treatment groups on a rotational basis (to normalize onset date), and ten mice were assigned to each group. For administration, compound of Formula III was solubilized in sterile saline. To facilitate drugs delivered by oral administration, carboxymethylcellulose was added to a final concentration of 4% in all gavage solutions. Compounds were administered according to the following schedule: • Group 1. 100 μl sterile saline vehicle injected intraperitoneally (i.p.)×3/week. • Group 2. 100 μl sterile saline containing compound of Formula III at 40 mg/kg injected i.p.×3/week. • Group 3. 100 μl sterile saline containing 100 μg Enbrel injected i.p.×3/week. • Group 4. 100 μl sterile saline containing compound of Formula III at 40 mg/kg gavaged×5/week.
Group 5. 100 μl sterile saline containing prednisolone 10 mg/kg gavaged×5/week.
Mice were weighed weekly, and overall health status noted. Arthritiic animals were clinically assessed by visual inspection five times per week, and paw swelling quantified by caliper measurements made three times per week, until seven weeks after the initial onset of arthritis. All animals were assessed individually from the time of disease onset, and the appropriate findings were entered into clinical report forms.

Assay [2] concerns anti-type II collagen antibody. The conditions noted are these: after seven weeks of treatment; for terminal anti-CII levels compared with control mice: p<0.01, prednisolone gavage, Formula III i.p.; for terminal anti-CII levels compared with titers at disease onset: prednisolone 10 mg/kg gavage, Formula III 40 mg/kg i.p. The procedure: (§1) All mice were pre-bled prior to the start of the trial, subsequently at onset of arthritis and at the completion of the trial. Sera were separated and stored at −80° C. ELISA assays were performed to determine anti-type II collagen antibody levels and total immunoglobulin levels.
ELISA plates (Nunc-Immuno plates, Denmark) were coated with 100 μl of coating buffer (0.4M phosphate buffer ph7.6) containing 5 μg of type II collagen, at 4° C. overnight. Plates were washed 3 times with PBS containing 0.05% Tween 20 (Sigma, St. Louis, Mo.) and non specific binding was blocked by PBS containing 5% non fat milk overnight at 4° C. Mouse sera diluted to 1/100 in 5% milk/PBS was added to each well and incubated overnight at 4° C. Subsequently, the plates were washed six times in PBS containing 0.05% Tween-20 and incubated with alkaline phosphatase conjugated goat anti-mouse Ig (Southern Biotechnology Associates, Birmingham, Ala.) at 37° C. for 1 hour. Plates were washed 6 times again and developed for 40 minutes in the dark, using p-nitrophenyl phosphate (Sigma, St. Louis, Mo.) as a chromatogen substrate. The resulting optical density was measured at 405 nm by using a UV max spectrophotometer (Molecular Devices, CA). Negative pre-bleed control sera and a standard mouse anti-CII antiserum were titered on each plate to ensure uniformity of the assay. Antibody binding was expressed as OD405 units-blank.

Another assay deals with total serum Ig. The assay can be described thus: ELISA of total serum immunoglobulin levels in CIA mice. The conditions noted are these: prednisolone gavage; Formula III i.p.; vs control at disease onset or conclusion of trial. The procedure: as §1
Serum Ig levels was assessed using an ELISA assay. Dynatech Immulon I 96 well ELISA plates were coated with a 1/250 dilution of rabbit anti-mouse IgG (Axell) in PBS overnight at 4° C. Plates were washed ×3 with PBS containing 0.05% Tween, and blocked by the addition of 5% BSA in PBS. Serum samples diluted 1/400 in PBS/BSA was dispensed in triplicate, and a reference curve constructed by a doubling dilution titer of mouse Ig reference serum (Miles) from 1/500 to 1/256,000. The plate was incubated overnight at room temperature, and washed ×3 with PBS/Tween. One hundred μl of goat anti-IgG conjugated with alkaline phosphatase (Fisher-Biotek) (1:500 dilution in Milk/PBS/Tween) was added, and the incubation continued for 1 hour at 37° C. After washing×3 with PBS/Tween, 100 μl of paranitrophenyl phosphate solution (PNPP tablets, Sigma) in diethylolamine buffer was added to each well, and the reaction allowed to proceed for 20 minutes in the dark. The plate was read at 405 nm using a Photospectrometer (Molecular Devices), and the data analyzed using the SOFTmax analytical software package. […]
Background: ELISA stands for enzyme-linked immunosorbent assay.

The next assay has as its system lymph node cells. The assay can be described thus: Lymph node cell mitogen and antigen proliferative responses (MTT) from treated CIA mice. The conditions noted are these: lymphocytes from mice treated 40 mg/kg i.p.; p<0.05. Here is the method:
Spleen and lymph nodes were removed at sacrifice, and mitogen responses to Con A and LPS, and antigen proliferative responses to type II collagen were determined using standard techniques. Lymph nodes and spleens were harvested and 1 ml of cell suspension (2.5×10^6/ml) cultured in 12-well tissue culture plates (Costar, Corning, N.Y.) with various stimuli in complete RPMI-1640 medium. Cells were incubated for 3 days at 37° C. in a 5% CO2 atmosphere in the presence of mitogen or antigen. 20 µl of MTT (a mitochondrial enzyme substrate) solution (5 mg/ml; Sigma, St Louis, Mo.) was added per well. After 6 hours, the culture supernatant was discarded, and 200 µl of 10% SDS solution added to each well. After incubation at 37° C. overnight, the optical density at 590 nm was read using a microplate photospectrometer (Molecular Devices, CA). The mean and OD values, which provide a measure of cell proliferation, were recorded for each cell sample with respect to antigen stimulation. Antigen specific responses were expressed as (OD590 [Stimulated Culture]−OD590 [Spontaneous proliferation culture])/OD590 [Spontaneous proliferation culture].

In the case of `COc1cccc2c1[n+]([O-])c1cccc(O)c1[n+]2[O-]` [compound of Formula III], in assay [1] (40 mg/kg i.p. ×3/week or gavaged ×5/week, irrespective of the route of administration), the “number of involved paws vs control mice” value was “did not significantly influence the number of involved paws”. Further, the “reduction in arthritis score vs saline control” value (“reduction in arthritis score” below) in assay [1] (40 mg/kg i.p. ×3/week, p<0.02 from Day 23, p<0.007 at Day 24, sustained until end of trial) is “significant reduction”. For the same molecule, the “effect upon arthritis score vs saline control” value in assay [1] (40 mg/kg oral gavage ×5/week) was “did not exert a statistically significant effect”. In assay [1], the “arthritis score vs saline control treated mice (FIG. 2), overall statement” value was “marked effect upon the arthritis score” and the “Day post the start of therapy from which a significant reduction (p<0.02) in arthritis score was achieved” value turned out to be 23 days. Further, in assay [2], the “terminal anti-CII levels compared with control mice” value is recorded as “significant reduction” and the “terminal anti-CII levels compared with titers at disease onset” value is on record as “maintenance of titers equivalent to the levels at onset”. Besides, in the assay on total serum Ig, the “total serum Ig levels at the terminal bleed vs control mice” value was “this reduction was not significantly different”. The “lymph node cell response to LPS” value in the assay with lymph node cells is given as “significant reduction”.

On to `C[C@]12C=CC(=O)C=C1CC[C@@H]1[C@@H]2[C@@H](O)C[C@@]2(C)[C@H]1CC[C@]2(O)C(=O)CO` [prednisolone], for which, in assay [1], the “arthritis score vs saline control treated mice (FIG. 2), overall statement” value is “significantly reduced the arthritis score” and the “Day post the start of therapy from which a significant reduction (p<0.02) in arthritis score was achieved” value is 12 days. Moreover, the “number of involved (arthritic) paws vs control mice” value in assay [1] (prednisolone 10 mg/kg gavaged ×5/week, from Day 16 after arthritis onset throughout the study, p<0.002) was “significantly lower number of arthritic paws”. The “reduction in arthritis score” value in assay [1] (prednisolone 10 mg/kg gavaged ×5/week, p<0.02 from Day 12, p<0.001 at day 17, sustained for remainder of trial) is reported as “significant reduction”. Further, in assay [2], the “terminal anti-CII levels compared with control mice” value was “significant reduction” and the “terminal anti-CII levels compared with titers at disease onset” value is recorded as “minor decrease”. The “total serum Ig levels at the terminal bleed vs control mice” value in the assay on total serum Ig was “this reduction was not significantly different”.

As to Enbrel, the “number of involved (arthritic) paws vs control mice” value in assay [1] (100 μg Enbrel i.p. ×3/week, Day 25 through Day 28, p<0.05) is given as “significantly lower number of arthritic paws”. Moreover, the “reduction in arthritis score” value in assay [1] (100 μg Enbrel i.p. ×3/week, p<0.02 from Day 12, not sustained until 23 days of therapy) is given as “significant reduction”. Besides, in assay [1], the “arthritis score vs saline control treated mice (FIG. 2), overall statement” value is “significantly reduced the arthritis score” and the “Day post the start of therapy from which a significant reduction (p<0.02) in arthritis score was achieved” value was found to be 12 days.
